Oligonucleotides are written 5' to 3', each unit as a sugar letter and its base; * is a phosphorothioate linkage, no mark a phosphodiester; rarer units and linkages stand in square brackets, end groups in braces. Plain capitals give the bases only. {ppp} = triphosphate group; r = 2'-OH (RNA)
What follows are compounds tested on human primary monocytes (assay: IFN-α production in human primary monocytes transfected with RNA (ELISA)). Conditions: 200 ng RNA transfected, 24 hours, ELISA.
Format: cell-based

Compound	IFN-α production in monocytes
5′-pppGGGGAUGAACUUCAGGGUCAGCUU-3′ ({ppp}-rGrGrGrGrArUrGrArArCrUrUrCrArGrGrGrUrCrArGrCrUrU) [tri-GFPa]	comparable levels of IFN-α
CCOCc1nc2c(N)nc3ccccc3c2n1CC(C)(C)O [R848, reference compound]	failed to produce IFN-α
5′-pppGGGGCUGACCCUGAAGUUCAUCUU-3′ [tri-GFPs]	comparable levels of IFN-α

Same assay, conditions: 24 hours after stimulation, five donors, mean±SEM

Compound	IFN-α induction level [pg/mL]
5′-pppGGGGCUGACCCUGAAGUUCAUCUUCCC-3′ [27-mer]	5876 ± 1785

Same assay, conditions: adenosine-initiated in vitro transcribed RNA oligonucleotides, FIG. 13

Compound	IFN-α-inducing activity conferred by the 5′ 4-nucleotide sequence
aacgggggac acacacacac acacacacac (AACGGGGGACACACACACACACACACACAC; RNA, 5' {ppp}, backbone not given here) [SEQ ID No. 170]	highest IFN-α-inducing activity
aacuggggac acacacacac acacacacac (AACUGGGGACACACACACACACACACACAC; RNA, 5' {ppp}, backbone not given here) [SEQ ID No. 163]	highest IFN-α-inducing activity
auugggggac acacacacac acacacacac (AUUGGGGGACACACACACACACACACACAC; RNA, 5' {ppp}, backbone not given here) [SEQ ID No. 167]	highest IFN-α-inducing activity
aaauggggac acacacacac acacacacac (AAAUGGGGACACACACACACACACACACAC; RNA, 5' {ppp}, backbone not given here) [SEQ ID No. 146]	highest IFN-α-inducing activity
acagggggac acacacacac acacacacac (ACAGGGGGACACACACACACACACACACAC; RNA, 5' {ppp}, backbone not given here) [SEQ ID No. 150]	highest IFN-α-inducing activity
aacaggggac acacacacac acacacacac (AACAGGGGACACACACACACACACACACAC; RNA, 5' {ppp}, backbone not given here) [SEQ ID No. 166]	highest IFN-α-inducing activity
auguggggac acacacacac acacacacac (AUGUGGGGACACACACACACACACACACAC; RNA, 5' {ppp}, backbone not given here) [SEQ ID No. 153]	highest IFN-α-inducing activity
aucgggggac acacacacac acacacacac (AUCGGGGGACACACACACACACACACACAC; RNA, 5' {ppp}, backbone not given here) [SEQ ID No. 162]	highest IFN-α-inducing activity
acggggggac acacacacac acacacacac (ACGGGGGGACACACACACACACACACACAC; RNA, 5' {ppp}, backbone not given here) [SEQ ID No. 145]	highest IFN-α-inducing activity

Same assay, conditions: monocytes from three donors, 36 hours after transfection; normalized to the mean induction level of all oligonucleotides (=100%)

Compound	IFN-α induction (*100%) mean
aacgggggac acacacacac acacacacac (AACGGGGGACACACACACACACACACACAC; RNA, 5' {ppp}, backbone not given here) [SEQ ID No. 170]	1.34 *100%
aacuggggac acacacacac acacacacac (AACUGGGGACACACACACACACACACACAC; RNA, 5' {ppp}, backbone not given here) [SEQ ID No. 163]	1.29 *100%
auugggggac acacacacac acacacacac (AUUGGGGGACACACACACACACACACACAC; RNA, 5' {ppp}, backbone not given here) [SEQ ID No. 167]	1.31 *100%
agcgggggac acacacacac acacacacac (AGCGGGGGACACACACACACACACACACAC; RNA, 5' {ppp}, backbone not given here) [SEQ ID No. 115]	0.52 *100%
acuaggggac acacacacac acacacacac (ACUAGGGGACACACACACACACACACACAC; RNA, 5' {ppp}, backbone not given here) [SEQ ID No. 117]	0.62 *100%
aaauggggac acacacacac acacacacac (AAAUGGGGACACACACACACACACACACAC; RNA, 5' {ppp}, backbone not given here) [SEQ ID No. 146]	1.04 *100%
acagggggac acacacacac acacacacac (ACAGGGGGACACACACACACACACACACAC; RNA, 5' {ppp}, backbone not given here) [SEQ ID No. 150]	1.12 *100%
agggggggac acacacacac acacacacac (AGGGGGGGACACACACACACACACACACAC; RNA, 5' {ppp}, backbone not given here) [SEQ ID No. 111]	0.22 *100%
aacaggggac acacacacac acacacacac (AACAGGGGACACACACACACACACACACAC; RNA, 5' {ppp}, backbone not given here) [SEQ ID No. 166]	1.30 *100%
accuggggac acacacacac acacacacac (ACCUGGGGACACACACACACACACACACAC; RNA, 5' {ppp}, backbone not given here) [SEQ ID No. 124]	0.76 *100%
aaugggggac acacacacac acacacacac (AAUGGGGGACACACACACACACACACACAC; RNA, 5' {ppp}, backbone not given here) [SEQ ID No. 136]	0.96 *100%
auguggggac acacacacac acacacacac (AUGUGGGGACACACACACACACACACACAC; RNA, 5' {ppp}, backbone not given here) [SEQ ID No. 153]	1.15 *100%
aucgggggac acacacacac acacacacac (AUCGGGGGACACACACACACACACACACAC; RNA, 5' {ppp}, backbone not given here) [SEQ ID No. 162]	1.28 *100%
aucuggggac acacacacac acacacacac (AUCUGGGGACACACACACACACACACACAC; RNA, 5' {ppp}, backbone not given here) [SEQ ID No. 133]	0.94 *100%
acggggggac acacacacac acacacacac (ACGGGGGGACACACACACACACACACACAC; RNA, 5' {ppp}, backbone not given here) [SEQ ID No. 145]	1.03 *100%

Same assay, conditions: monocytes, 200 ng, 24 hours

Compound	reduction in IFN-α induction compared with RNA9.2s-0A
5′-pppGCUUAACCUGUCCUUCAAU-3′ [RNA9.2s-1G]	approximately 25%

What follows are compounds tested on PDC (assay: IFN-α production in human PDC (ELISA)). Conditions: 24 hours.
Format: cell-based
Method: Human PBMC were prepared from whole blood donated by young healthy donors by Ficoll-Hypaque density gradient centrifugation (Biochrom, Berlin, Germany). PDC were isolated by MACS using the blood dendritic cell Ag (BCDA)-4 dendritic cell isolation kit from Miltenyi Biotec (Bergisch-Gladbach, Germany). Briefly, PDC were labelled with anti-BDCA-4 Ab coupled to colloidal paramagnetic microbeads and passed through a magnetic separation column twice (LS column, then MS column; Miltenyi Biotec). The purity of isolated PDC (lineage-negative, MHC-II-positive and CD123-positive cells) was above 95%. Before isolation of monocytes, PDC were depleted by MACS (LD column; Miltenyi Biotec) and then monocytes were isolated using the monocyte isolation kit II (Miltenyi Biotec). […] PDC cultures were additionally supplemented with 10 ng/ml IL-3 (R&D Systems). […] Vero (African green monkey kidney) and HEK 293T (human embryonic kidney) cells were maintained in Dulbecco's modified Eagle's medium supplemented with antibiotics and 5% or 10% foetal calf serum, respectively. BSR cells were propagated in Glasgow minimal essential medium supplemented with 10% newborn calf serum, phosphate broth, amino acids and antibiotics.
Human IFN-α was assessed in cell culture supernatants using the IFN-α module set (Bender MedSystems, Graz, Austria). The murine IP-10 ELISA was from Biosource (Solingen, Germany), the murine IFN-[…] ELISA was from PBL Biomedical Laboratories (Piscataway, USA). All ELISA procedures were performed, according to manufacturers' recommendations.

Compound	IFN-α production in PDC
5′-OHAGCUUAACCUGUCCUUCAA-3′ [synthetic isRNA9.2s, reference compound]	produced IFN-α
CCOCc1nc2c(N)nc3ccccc3c2n1CC(C)(C)O [R848, reference compound]	induce IFN-α in PDC

These compounds were tested against T1, RIG-I (Homo sapiens, UniProt O95786) (assay: pIFN-beta-Luc reporter assay in HEK 293 cells transfected with RIG-I). Conditions: HEK 293 cells expressing full length RIG-I, 200 ng, 24 hours.
T1 sequence (O95786 1-925): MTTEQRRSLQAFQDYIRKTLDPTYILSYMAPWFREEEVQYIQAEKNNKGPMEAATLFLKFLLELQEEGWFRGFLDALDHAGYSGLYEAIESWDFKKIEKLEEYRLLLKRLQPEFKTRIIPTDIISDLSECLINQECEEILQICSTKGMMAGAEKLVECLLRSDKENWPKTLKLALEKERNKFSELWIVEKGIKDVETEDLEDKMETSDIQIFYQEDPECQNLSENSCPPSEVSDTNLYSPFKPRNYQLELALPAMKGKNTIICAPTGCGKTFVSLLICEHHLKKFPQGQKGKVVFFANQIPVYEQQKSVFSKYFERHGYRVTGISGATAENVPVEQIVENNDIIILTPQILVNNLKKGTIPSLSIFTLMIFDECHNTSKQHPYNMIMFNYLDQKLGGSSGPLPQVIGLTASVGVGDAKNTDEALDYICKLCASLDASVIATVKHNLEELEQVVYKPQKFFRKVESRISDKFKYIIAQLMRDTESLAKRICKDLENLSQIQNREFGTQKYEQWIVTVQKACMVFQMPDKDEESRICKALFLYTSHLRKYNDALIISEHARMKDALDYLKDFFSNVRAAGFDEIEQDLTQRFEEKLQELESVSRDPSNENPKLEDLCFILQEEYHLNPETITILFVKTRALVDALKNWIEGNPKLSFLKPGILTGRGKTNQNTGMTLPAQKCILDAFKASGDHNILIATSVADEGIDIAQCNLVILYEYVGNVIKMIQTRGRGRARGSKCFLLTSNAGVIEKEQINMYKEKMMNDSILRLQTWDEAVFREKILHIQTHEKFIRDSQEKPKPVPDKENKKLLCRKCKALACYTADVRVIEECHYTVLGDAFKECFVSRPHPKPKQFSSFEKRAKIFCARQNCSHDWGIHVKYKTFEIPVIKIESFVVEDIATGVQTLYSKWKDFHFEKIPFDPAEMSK
Format: cell-based
Parameters: Only HEK 293 cells expressing full length RIG-I responded to 5′triphosphate RNA; FLAG; expressed in transfected cells; host or cells: HEK 293

Compound	IFN-β promoter reporter expression
5′-OHAGCUUAACCUGUCCUUCAA-3′ [synthetic isRNA9.2s, reference compound]	did not respond
5′-pppGGGGAUGAACUUCAGGGUCAGCUU-3′ ({ppp}-rGrGrGrGrArUrGrArArCrUrUrCrArGrGrGrUrCrArGrCrUrU) [tri-GFPa]	strongly activated reporter expression
5′-pppGGGGCUGACCCUGAAGUUCAUCUU-3′ [tri-GFPs]	strongly activated reporter expression

Source: patent US9381208B2, “Structure and use of 5′ phosphate oligonucleotides” (Rheinische Friedrich-Wilhelms-Universität, priority 2006, dated 2016)
